# Patent US7425577B2, “Lipase-colipase inhibitor” (Forskarpatent 1 SYD AB, priority 2003, dated 2008)
# “And” between values parts separate entries of the source, which are not always exact repeats. Equal entries are not always repeated. “Also recorded” adds a separate entry of the source.
# Legend:
# [1] = Evaluation of food intake and body weight, oral gavage for 5 days; format: in vivo, female Sprague-Dawley rats
# Procedure: Female female Sprague-Dawley rats were used for all experiments. Rats were housed in a temperature-controlled room (22±1° C.) under a 12-h light (6:00-18:00)/12-h cycle, given free access to water, and fed an libitum on a standard chow unless otherwise stated for a high-fat diet experiment. All procedures using animals were approved by the local ethics committee and followed the guidelines for experiments in animals (European Economic Community Council Directive 86/609/EEC).
# For measurement of food consumption rats were individually housed in cage and given a high-fat diet for a week before the beginning of the experiment. […] Rat with as libitum access to high-fat food were orally given dimethylaminoethyl dodecyl ether (37.5 or 50 μl dissolved in 1% methycellulose) through a gastric gavage or 1% methyl cellulose at the onset of the dark cycle (18:00) and food intake was measured at 15 h following dimethylaminoethyl dodecyl ether administration from pre-weighed portions of food dispensed from were cage top. Cages were carefully monitored for evidence of food spillage or grinding.
# [2] = In vivo Intralipid feeding test: free fatty acids and triglycerides in blood serum; design: species or system Sprague-Dawley rats
# Procedure: Sprague-Dawley rats weighing 200-220 g, stored in cages using a 12 hours of light/12 hours of darkness cycle were used. They had free admittance to food and water prior to the test. The day prior a test the rats were fasted, and were anaesthetised in the morning using diethyl ether. 1 ml of Intralipid (200 mg/ml) with and without inhibitor was fed to the rats by means of a syringe through the mouth and ending in the stomach. Blood samples were taken at time 0, prior to the test start, and then after 30, 60, 120 and 180 minutes after feeding with Intralipid. After centrifugation, serum was separated and stored at −20° C. for analysis. Analyses of free fatty acids, triglycerides and total cholesterol were made. The test has been repeated, also using different dosages of the inhibitors tested.
# [3] = Serum PYY 3-36, leptin and ghrelin after 5 days of oral administration; format: in vivo, female Sprague-Dawley rats
# Procedure: Blood was drawn in rats from the intra-orbital bullar plexus under anaesthesia and collected in ice-cold tubes. Serum was obtained by centrifugation at 3000 g for 15 min at 4° C. For acute effect of dimethylaminoethyl dodecyl ether on blood lipids, overnight-fasted rats were given 200 μl dimethylaminoethyl dodecyl ether plus 1 ml (200 mg) Intralipids orally through a gastric gavage and blood collected at 0, 30, 60, 120 and 180 min. Plasma triglycerides was determined with an Sigma diagnostics kit. Plasma fatty acids were measured by NEFAC kit (Wako chemicals GmbH, Neuss, Germany). Plasma PYY (3-36) and leptin were measured with the PYY Enzyme Immunossay kit and leptin Enzyme Immunossay (Phoenix Pharmaceuticals, USA)
# Stat View program was used for statistics analysis. The data were analyzed using two-way ANOVA followed by post hoc tests for comparison of individual differences. Student's t-test was used for the analysis of triglycerides, PYY3-36, leptin and ghrelin data.
compound,measurement,setting,value
CCCCCCCCCCCCOCCN(C)C [dimethylaminoethyl dodecyl ether],Food intake vs vehicle,"[1]; rats fed high-fat diet, 25 μl orally",no food intake inhibition
same,Food intake vs vehicle,"[1]; rats fed high-fat diet, 37.5 μl by gastric gavage","a trend towards reduced food intake was observed, however this did not reach statistic significance"
same,Food intake vs vehicle,"[1]; rats fed high-fat diet, 50 μl by gastric gavage, up to 5 days",highly significant reduction in food intake; also recorded: significantly inhibited
same,Body weight vs non-treated group,"[1]; rats fed high-fat diet, 50 μl daily for 5 days",decreased body weight; also recorded: significantly loss of body weight
same,Food intake vs controls,"[1]; rats fed low-fat diet, 37.5 and 50 μl, 5 testing days",failed to decrease food intake
same,Triglycerides,"[2]; rat blood serum, 0 min (prior to Intralipid feeding)",103 mg/dL
same,Free fatty acids,"[2]; rat blood serum, 0 min (prior to Intralipid feeding), listed as Compound C12",0.56 mmol and 0.57 mmol
same,Triglycerides,"[2]; rat blood serum, 30 min after 1 ml Intralipid with inhibitor",95 mg/dL
same,Free fatty acids,"[2]; rat blood serum, 30 min after 1 ml Intralipid with inhibitor, listed as Compound C12",0.63 mmol and 0.67 mmol
same,Triglycerides,"[2]; rat blood serum, 60 min after 1 ml Intralipid with inhibitor",98 mg/dL
same,Free fatty acids,"[2]; rat blood serum, 60 min after 1 ml Intralipid with inhibitor, listed as Compound C12",0.70 mmol and 0.72 mmol
same,Triglycerides,"[2]; rat blood serum, 120 min after 1 ml Intralipid with inhibitor",95 mg/dL
same,Free fatty acids,"[2]; rat blood serum, 120 min after 1 ml Intralipid with inhibitor, listed as Compound C12",0.60 mmol and 0.72 mmol
same,Triglycerides,"[2]; rat blood serum, 180 min after 1 ml Intralipid with inhibitor",77 mg/dL
same,Free fatty acids,"[2]; rat blood serum, 180 min after 1 ml Intralipid with inhibitor, listed as Compound C12",0.62 mmol and 0.74 mmol
same,Free fatty acids (% of control),"[2]; rat, dose of active compound 10 μg",83.7 % of control
same,Free fatty acids,"[2]; rat, dose of active compound 10 μg, dose 0: 1.45",1.25 mM
same,Free fatty acids (% of control),"[2]; rat, dose of active compound 50 μg",56.1 % of control
same,Free fatty acids,"[2]; rat, dose of active compound 50 μg, dose 0: 1.45",0.83 mM
same,Free fatty acids (% of control),"[2]; rat, dose of active compound 100 μg",57.4 % of control
same,Free fatty acids,"[2]; rat, dose of active compound 100 μg, dose 0: 1.45",0.85 mM
same,Free fatty acids (% of control),"[2]; rat, dose of active compound 200 μg",74.3 % of control
same,Free fatty acids,"[2]; rat, dose of active compound 200 μg, dose 0: 1.45",1.1 mM
same,Serum PYY 3-36 level vs controls,"[3]; fasted rats, 50 μl for 5 days",no difference
same,Serum ghrelin level vs controls,"[3]; fasted rats, 50 μl for 5 days",markedly increased
same,Serum leptin level vs controls,"[3]; fasted rats, 50 μl for 5 days",markedly decreased; also recorded: significantly decreased
same,Serum PYY3-36 level,"[3]; treated rats, 5 days, control rats 0.86±0.24",0.85 ± 0.26 ng/mL
